Results published in patent US11987588B2, “Modulators of the beta-3 adrenergic receptor useful for the treatment or prevention of heart failure and disorders related thereto” (Arena Pharmaceuticals, Inc., priority 2017, dated 2024).

target: Beta-3 Adrenergic Receptor (Homo sapiens (Human), UniProt P13945); experiment: Homogeneous Time-Resolved Fluorescence (HTRF) cAMP antagonist assay, IC50 determination; format: cell-based; conditions: CHO-K1 cells stably expressing recombinant receptor, isoproterenol at EC90
Sequence (P13945 whole entry, species assumed): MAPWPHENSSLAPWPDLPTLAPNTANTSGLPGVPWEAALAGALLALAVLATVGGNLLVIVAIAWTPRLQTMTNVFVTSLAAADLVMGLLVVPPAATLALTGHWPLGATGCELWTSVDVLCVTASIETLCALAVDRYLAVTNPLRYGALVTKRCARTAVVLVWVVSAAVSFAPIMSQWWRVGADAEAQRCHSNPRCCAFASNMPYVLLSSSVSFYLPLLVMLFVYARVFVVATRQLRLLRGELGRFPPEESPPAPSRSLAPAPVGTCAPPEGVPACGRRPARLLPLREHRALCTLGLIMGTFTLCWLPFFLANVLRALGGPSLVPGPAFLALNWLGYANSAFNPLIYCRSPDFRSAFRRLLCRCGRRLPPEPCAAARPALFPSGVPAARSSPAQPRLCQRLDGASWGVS
Method in brief: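 Antagonist mode: isoproterenol at its predetermined EC90 added after compound to recombinant CHO-K1 cells in IBMX-containing PBS, 1 h, room temperature. Compounds tested as 5-fold, 10-point dilutions, top final typically 10 or 100 μM. HTRF signal converted to cAMP via standard curve, giving IC50.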

Structure (SMILES) | IC50
CNS(=O)(=O)c1cccc(OC[C@@H](O)CN[C@H]2COC3(CCN(S(=O)(=O)c4cc5c(nc4OC)OCCN5C)CC3)C2)c1 [Compound 476, 3-((S)-2-hydroxy-3-((R)-8-(6-methoxy-1-methyl-2,3-dihydro-1H-pyrido[2,3-b][1,4]oxazin-7-ylsulfonyl)-1-oxa-8-azaspiro[4.5]decan-3-ylamino)propoxy)-N-methylbenzenesulfonamide] | 38.9 nM
CNS(=O)(=O)c1cccc(OC[C@@H](O)CN[C@H]2COC3(CCN(S(=O)(=O)c4cnc5[nH]c(=O)[nH]c5c4)CC3)C2)c1 [Compound 477, 3-((S)-2-hydroxy-3-((R)-8-(2-oxo-2,3-dihydro-1H-imidazo[4,5-b]pyridin-6-ylsulfonyl)-1-oxa-8-azaspiro[4.5]decan-3-ylamino)propoxy)-N-methylbenzenesulfonamide] | 52.3 nM
CNS(=O)(=O)c1cccc(OC[C@@H](O)CN[C@H]2COC3(CCN(S(=O)(=O)c4cnc5c(c4)C(=O)NC5)CC3)C2)c1 [Compound 478, 3-((S)-2-hydroxy-3-((R)-8-(5-oxo-6,7-dihydro-5H-pyrrolo[3,4-b]pyridin-3-ylsulfonyl)-1-oxa-8-azaspiro[4.5]decan-3-ylamino)propoxy)-N-methylbenzenesulfonamide] | 204 nM
CNS(=O)(=O)c1cccc(OC[C@@H](O)CN[C@H]2COC3(CCN(S(=O)(=O)c4cnc5c(c4)CCCC5)CC3)C2)c1 [Compound 479, 3-((S)-2-hydroxy-3-((R)-8-(5,6,7,8-tetrahydroquinolin-3-ylsulfonyl)-1-oxa-8-azaspiro[4.5]decan-3-ylamino)propoxy)-N-methylbenzenesulfonamide] | 32.1 nM
CNS(=O)(=O)c1cccc(OC[C@@H](O)CN[C@H]2COC3(CCN(S(=O)(=O)c4cnc5c(c4)OCCO5)CC3)C2)c1 [Compound 480, 3-((S)-3-((R)-8-(2,3-dihydro-[1,4]dioxino[2,3-b]pyridin-7-ylsulfonyl)-1-oxa-8-azaspiro[4.5]decan-3-ylamino)-2-hydroxypropoxy)-N-methylbenzenesulfonamide] | 75.3 nM
CNS(=O)(=O)c1cccc(OC[C@@H](O)CN[C@H]2COC3(CCN(S(=O)(=O)c4cnc5c(c4)OCCN5C)CC3)C2)c1 [Compound 481, 3-((S)-2-hydroxy-3-((R)-8-(4-methyl-3,4-dihydro-2H-pyrido[3,2-b][1,4]oxazin-7-ylsulfonyl)-1-oxa-8-azaspiro[4.5]decan-3-ylamino)propoxy)-N-methylbenzenesulfonamide] | 31.1 nM
CNS(=O)(=O)c1cccc(OC[C@@H](O)CN[C@H]2COC3(CCN(S(=O)(=O)c4cnc5c(c4)CNC5)CC3)C2)c1 [Compound 482, 3-((S)-3-((R)-8-(6,7-dihydro-5H-pyrrolo[3,4-b]pyridin-3-ylsulfonyl)-1-oxa-8-azaspiro[4.5]decan-3-ylamino)-2-hydroxypropoxy)-N-methylbenzenesulfonamide] | 1510 nM
CNS(=O)(=O)c1cccc(OC[C@@H](O)CN[C@H]2COC3(CCN(S(=O)(=O)c4cnc5c(c4)CCCO5)CC3)C2)c1 [Compound 483, 3-((S)-3-((R)-8-(3,4-dihydro-2H-pyrano[2,3-b]pyridin-6-ylsulfonyl)-1-oxa-8-azaspiro[4.5]decan-3-ylamino)-2-hydroxypropoxy)-N-methylbenzenesulfonamide] | 41.8 nM
CNS(=O)(=O)c1cccc(OC[C@@H](O)CN[C@H]2COC3(CCN(S(=O)(=O)c4cnc5c(c4)CNCC5)CC3)C2)c1 [Compound 484, 3-((S)-2-hydroxy-3-((R)-8-(5,6,7,8-tetrahydro-1,6-naphthyridin-3-ylsulfonyl)-1-oxa-8-azaspiro[4.5]decan-3-ylamino)propoxy)-N-methylbenzenesulfonamide] | 278 nM
CNS(=O)(=O)c1cccc(OC[C@@H](O)CN[C@H]2COC3(CCN(S(=O)(=O)c4cnc5cccnc5c4)CC3)C2)c1 [Compound 485, 3-((S)-3-((R)-8-(1,5-naphthyridin-3-ylsulfonyl)-1-oxa-8-azaspiro[4.5]decan-3-ylamino)-2-hydroxypropoxy)-N-methylbenzenesulfonamide] | 35.8 nM
CNS(=O)(=O)c1cccc(OC[C@@H](O)CN[C@H]2COC3(CCN(S(=O)(=O)c4cnc5nc(C)[nH]c5c4)CC3)C2)c1 [Compound 486, 3-((S)-2-hydroxy-3-((R)-8-(2-methyl-1H-imidazo[4,5-b]pyridin-6-ylsulfonyl)-1-oxa-8-azaspiro[4.5]decan-3-ylamino)propoxy)-N-methylbenzenesulfonamide] | 41.5 nM
CNS(=O)(=O)c1cccc(OC[C@@H](O)CN[C@H]2COC3(CCN(S(=O)(=O)c4cnc5c(c4)N(C)CCCO5)CC3)C2)c1 [Compound 487, 3-((S)-2-hydroxy-3-((R)-8-(1-methyl-1,2,3,4-tetrahydropyrido[2,3-b][1,4]oxazepin-8-ylsulfonyl)-1-oxa-8-azaspiro[4.5]decan-3-ylamino)propoxy)-N-methylbenzenesulfonamide] | 25.2 nM
CNS(=O)(=O)c1cccc(OC[C@@H](O)CN[C@H]2COC3(CCN(S(=O)(=O)c4cnc5c(c4)COCC5)CC3)C2)c1 [Compound 488, 3-((S)-3-((R)-8-(7,8-dihydro-5H-pyrano[4,3-b]pyridin-3-ylsulfonyl)-1-oxa-8-azaspiro[4.5]decan-3-ylamino)-2-hydroxypropoxy)-N-methylbenzenesulfonamide] | 38.1 nM
CNS(=O)(=O)c1cccc(OC[C@@H](O)CN[C@H]2COC3(CCN(S(=O)(=O)c4cnc5nc(N)ccc5c4)CC3)C2)c1 [Compound 489, 3-((S)-3-((R)-8-(7-amino-1,8-naphthyridin-3-ylsulfonyl)-1-oxa-8-azaspiro[4.5]decan-3-ylamino)-2-hydroxypropoxy)-N-methylbenzenesulfonamide] | 33.9 nM
CNS(=O)(=O)c1cccc(OC[C@@H](O)CN[C@H]2COC3(CCN(S(=O)(=O)c4cnc5[nH]ncc5c4)CC3)C2)c1 [Compound 490, 3-((S)-3-((R)-8-(1H-pyrazolo[3,4-b]pyridin-5-ylsulfonyl)-1-oxa-8-azaspiro[4.5]decan-3-ylamino)-2-hydroxypropoxy)-N-methylbenzenesulfonamide] | 37.3 nM
CNS(=O)(=O)c1cccc(OC[C@@H](O)CN[C@H]2COC3(CCN(S(=O)(=O)c4cnc5c(c4)CCC5)CC3)C2)c1 [Compound 491, 3-((S)-3-((R)-8-(6,7-dihydro-5H-cyclopenta[b]pyridin-3-ylsulfonyl)-1-oxa-8-azaspiro[4.5]decan-3-ylamino)-2-hydroxypropoxy)-N-methylbenzenesulfonamide] | 24.4 nM
CCn1cc(S(=O)(=O)N2CCC3(CC2)C[C@@H](NC[C@H](O)COc2cccc(S(=O)(=O)NC)c2)CO3)c(=O)c2ccccc21 [Compound 492, 3-((S)-3-((R)-8-(1-ethyl-4-oxo-1,4-dihydroquinolin-3-ylsulfonyl)-1-oxa-8-azaspiro[4.5]decan-3-ylamino)-2-hydroxypropoxy)-N-methylbenzenesulfonamide] | 33 nM
CNS(=O)(=O)c1cccc(OC[C@@H](O)CN[C@H]2COC3(CCN(S(=O)(=O)c4cnc5[nH]cc(C#N)c5c4)CC3)C2)c1 [Compound 493, 3-((S)-3-((R)-8-(3-cyano-1H-pyrrolo[2,3-b]pyridin-5-ylsulfonyl)-1-oxa-8-azaspiro[4.5]decan-3-ylamino)-2-hydroxypropoxy)-N-methylbenzenesulfonamide] | 10.6 nM
CNS(=O)(=O)c1cccc(OC[C@@H](O)CN[C@H]2COC3(CCN(S(=O)(=O)c4cn(C)c5ccccc5c4=O)CC3)C2)c1 [Compound 494, 3-((S)-2-hydroxy-3-((R)-8-(1-methyl-4-oxo-1,4-dihydroquinolin-3-ylsulfonyl)-1-oxa-8-azaspiro[4.5]decan-3-ylamino)propoxy)-N-methylbenzenesulfonamide] | 62.4 nM
CNS(=O)(=O)c1cccc(OC[C@@H](O)CN[C@H]2COC3(CCN(S(=O)(=O)c4cnc5nc[nH]c5c4)CC3)C2)c1 [Compound 495, 3-((S)-3-((R)-8-(1H-imidazo[4,5-b]pyridin-6-ylsulfonyl)-1-oxa-8-azaspiro[4.5]decan-3-ylamino)-2-hydroxypropoxy)-N-methylbenzenesulfonamide] | 50.6 nM
CNS(=O)(=O)c1cccc(OC[C@@H](O)CN[C@H]2COC3(CCN(S(=O)(=O)c4ccc[n+]([O-])c4)CC3)C2)c1 [Compound 496, 3-((R)-3-((S)-2-hydroxy-3-(3-(N-methylsulfamoyl)phenoxy)propylamino)-1-oxa-8-azaspiro[4.5]decan-8-ylsulfonyl)pyridine 1-oxide] | 541 nM
CNS(=O)(=O)c1cccc(OC[C@@H](O)CN[C@H]2COC3(CCN(S(=O)(=O)c4cnc5[nH]nc(C)c5c4)CC3)C2)c1 [Compound 497, 3-((S)-2-hydroxy-3-((R)-8-(3-methyl-1H-pyrazolo[3,4-b]pyridin-5-ylsulfonyl)-1-oxa-8-azaspiro[4.5]decan-3-ylamino)propoxy)-N-methylbenzenesulfonamide] | 16.4 nM
CNS(=O)(=O)c1cccc(OC[C@@H](O)CN[C@H]2COC3(CCN(S(=O)(=O)c4ccc5c(c4)C(=O)C(=O)N5)CC3)C2)c1 [Compound 498, 3-((S)-3-((R)-8-(2,3-dioxoindolin-5-ylsulfonyl)-1-oxa-8-azaspiro[4.5]decan-3-ylamino)-2-hydroxypropoxy)-N-methylbenzenesulfonamide] | 117 nM
CNS(=O)(=O)c1cccc(OC[C@@H](O)CN[C@H]2COC3(CCN(S(=O)(=O)c4ccc5[nH]c(=O)[nH]c5c4)CC3)C2)c1 [Compound 499, 3-((S)-2-hydroxy-3-((R)-8-(2-oxo-2,3-dihydro-1H-benzo[d]imidazol-5-ylsulfonyl)-1-oxa-8-azaspiro[4.5]decan-3-ylamino)propoxy)-N-methylbenzenesulfonamide] | 73 nM
CNS(=O)(=O)c1cccc(OC[C@@H](O)CN[C@H]2COC3(CCN(S(=O)(=O)c4cnc5c(c4)OCCN5)CC3)C2)c1 [Compound 500, 3-((S)-3-((R)-8-(3,4-dihydro-2H-pyrido[3,2-b][1,4]oxazin-7-ylsulfonyl)-1-oxa-8-azaspiro[4.5]decan-3-ylamino)-2-hydroxypropoxy)-N-methylbenzenesulfonamide] | 28.8 nM
